Experiments:
Assay type in all cases: in vivo
[1] = system: Viola tricolor; experiment: Pre-emergence herbicidal action; conditions: 1280 g/ha, scored visually after about 3 weeks vs untreated controls
From the text: (§1) Pre-Emergence Herbicidal Action and Crop Plant Compatibility Seeds of monocotyledonous and dicotyledonous weed plants and crop plants were placed in plastic or wood fiber pots and covered with soil. The compounds of the invention, formulated in the form of wettable powders (WP) or as emulsion concentrates (EC), were then applied onto the surface of the covering soil as aqueous suspension or emulsion with addition of 0.5% additive at a water application rate of 600 l/ha (converted). After the treatment, the pots were placed in a greenhouse and kept under good growth conditions for the test plants. After about 3 weeks, the effect of the preparations was scored visually in comparison with untreated controls as percentages. For example, 100% activity=the plants have died, 0% activity=like control plants. Tables C1 to C14 below show the effects of selected compounds of the general formula (I) according to Table I on various harmful plants and an application rate corresponding to 1280 g/ha, which were obtained by the experimental procedure mentioned above.

[2] = system: Matricaria inodora; experiment: Pre-emergence herbicidal action; conditions: 1280 g/ha, scored visually after about 3 weeks vs untreated controls
From the text: as §1

[3] = system: Avena fatua; experiment: Pre-emergence herbicidal action; conditions: 1280 g/ha, scored visually after about 3 weeks vs untreated controls
From the text: as §1

[4] = system: Abutilon theophrasti; experiment: Pre-emergence herbicidal action; conditions: 1280 g/ha, scored visually after about 3 weeks vs untreated controls
From the text: as §1

[5] = system: Polygonum convolvulus; experiment: Pre-emergence herbicidal action; conditions: 1280 g/ha, scored visually after about 3 weeks vs untreated controls
From the text: as §1

[6] = system: Amaranthus retroflexus; experiment: Pre-emergence herbicidal action; conditions: 1280 g/ha, scored visually after about 3 weeks vs untreated controls
From the text: as §1

[7] = system: Echinochloa crus-galli; experiment: Pre-emergence herbicidal action; conditions: 1280 g/ha, scored visually after about 3 weeks vs untreated controls
From the text: as §1

[8] = system: Setaria viridis; experiment: Pre-emergence herbicidal action; conditions: 1280 g/ha, scored visually after about 3 weeks vs untreated controls
From the text: as §1

[9] = system: Veronica persica; experiment: Pre-emergence herbicidal action; conditions: 1280 g/ha, scored visually after about 3 weeks vs untreated controls
From the text: as §1

[10] = system: Viola tricolor; experiment: Post-emergence herbicidal action; conditions: 1280 g/ha, rated visually after about 3 weeks vs untreated controls
Procedure: (§2) A. Post-Emergence Herbicidal Action and Crop Plant Compatibility Seeds of monocotyledonous and dicotyledonous weeds and crop plants were placed in sandy loam in plastic or wood-fiber pots, covered with soil and cultivated in a greenhouse under controlled growth conditions. 2 to 3 weeks after sowing, the test plants were treated at the one-leaf stage. The compounds of the invention, formulated in the form of wettable powders (WP) or as emulsion concentrates (EC), were then sprayed onto the green parts of the plants as aqueous suspension or emulsion with addition of 0.5% additive at a water application rate of 600 l/ha (converted). After the test plants had been kept in the greenhouse under optimum growth conditions for about 3 weeks, the activity of the preparations was rated visually in comparison to untreated controls. For example, 100% activity=the plants have died, 0% activity=like control plants. Tables B1 to B15 below show the effects of selected compounds of the general formula (I) according to Table I on various harmful plants and an application rate corresponding to 1280 g/ha, which were obtained by the experimental procedure mentioned above.

[11] = system: Abutilon theophrasti; experiment: Post-emergence herbicidal action; conditions: 1280 g/ha, rated visually after about 3 weeks vs untreated controls
Procedure: as §2

[12] = system: Polygonum convolvulus; experiment: Post-emergence herbicidal action; conditions: 1280 g/ha, rated visually after about 3 weeks vs untreated controls
Procedure: as §2

[13] = system: Amaranthus retroflexus; experiment: Post-emergence herbicidal action; conditions: 1280 g/ha, rated visually after about 3 weeks vs untreated controls
Procedure: as §2

[14] = system: Alopecurus myosuroides; experiment: Post-emergence herbicidal action; conditions: 1280 g/ha, rated visually after about 3 weeks vs untreated controls
Procedure: as §2

[15] = system: Stellaria media; experiment: Post-emergence herbicidal action; conditions: 1280 g/ha, rated visually after about 3 weeks vs untreated controls
Procedure: as §2

[16] = system: Setaria viridis; experiment: Post-emergence herbicidal action; conditions: 1280 g/ha, rated visually after about 3 weeks vs untreated controls
Procedure: as §2

[17] = system: Pharbitis purpurea; experiment: Post-emergence herbicidal action; conditions: 1280 g/ha, rated visually after about 3 weeks vs untreated controls
Procedure: as §2

[18] = system: Veronica persica; experiment: Post-emergence herbicidal action; conditions: 1280 g/ha, rated visually after about 3 weeks vs untreated controls
Procedure: as §2

[19] = system: Alopecurus myosuroides; experiment: Pre-emergence herbicidal action; conditions: 1280 g/ha, scored visually after about 3 weeks vs untreated controls
From the text: as §1

[20] = system: Stellaria media; experiment: Pre-emergence herbicidal action; conditions: 1280 g/ha, scored visually after about 3 weeks vs untreated controls
From the text: as §1

Compound	herbicidal activity on Viola tricolor [1] [%]	herbicidal activity on Matricaria inodora [2] [%]	herbicidal activity on Avena fatua [3] [%]	herbicidal activity on Abutilon theophrasti [4] [%]	herbicidal activity on Polygonum convolvulus [5] [%]	herbicidal activity on Amaranthus retroflexus [6] [%]	herbicidal activity on Echinochloa crus-galli [7] [%]	herbicidal activity on Setaria viridis [8] [%]	herbicidal activity on Veronica persica [9] [%]	herbicidal activity on Viola tricolor [10] [%]	herbicidal activity on Abutilon theophrasti [11] [%]	herbicidal activity on Polygonum convolvulus [12] [%]	herbicidal activity on Amaranthus retroflexus [13] [%]	herbicidal activity on Alopecurus myosuroides [14] [%]	herbicidal activity on Stellaria media [15] [%]	herbicidal activity on Setaria viridis [16] [%]	herbicidal activity on Pharbitis purpurea [17] [%]	herbicidal activity on Veronica persica [18] [%]	herbicidal activity on Alopecurus myosuroides [19] [%]	herbicidal activity on Stellaria media [20] [%]
Cc1c(Sc2ccc(F)cc2)c(Oc2ncccn2)nn1C [Example I-087]	100	90	80	100	90	100	80	100	100	100	80	100	100	90	100	90	80	100		
Cn1cc(Sc2ccc(F)cc2)c(Oc2ncccn2)n1 [Example I-032]		90				80			90			90	90		100			90		
Cc1c(Sc2cccc(C(F)(F)F)c2)c(Oc2ncccn2)nn1C [Example I-142]	100				100	90		100	90		80		90					80	80	90
Cn1cc(Sc2ccccc2)c(Oc2ncccn2)n1 [Example I-067]	100	100		90	90	100	90	100	100	80		90			90			100	90	90
CCc1c(Sc2ccc(Cl)cc2)c(Oc2ncccn2)nn1C [Example I-058]	80					100							80		100			90		90
Cn1cc(Sc2ccccc2)c(Oc2ncc(Cl)cn2)n1 [Example I-120]	100			100	80	80	100		100	100		100	80	90	90	80		80	90	100

— patent US20200181117A1, “SUBSTITUTED 3-HETEROARYLOXY-1H-PYRAZOLES AND SALTS THEREOF AND THEIR USE AS HERBICIDAL ACTIVE SUBSTANCES” (BAYER CROPSCIENCE AKTIENGESELLSCHAFT, priority 2017, published 2020)
